In data set [1] the test system is Lucilia cuprina res. larvae. The experiment in a line: Test with resistant Lucilia cuprina larvae. Format: in vivo. To be noted: for mortality at 100 ppm: Lucilia cuprina, read-out: effectiveness (degree of destruction). As for the experimental part: Test with resistant Lucilia cuprina larvae
Emulsifier: 35 parts by weight of ethylene glycol monomethyl ether 35 parts by weight of nonylphenol polyglycol ether
To produce a suitable preparation of active compound, three parts by weight of active compound are mixed with seven parts by weight of the abovementioned mixture and the concentrate thus obtained is diluted with water to the particular desired concentration.
About 20 Lucilia cuprina res. larvae are introduced into a test tube which contains approx. 1 cm^3 of horse meat and 0.5 ml of the preparation of active compound. After 24 hours, the degree of destruction is determined.

Data set [2] has as its system Myzus persicae. The experiment in a line: Myzus test. To be noted: 144 h, read-out: Degree of destruction in % after 6d. Format: in vivo, Myzus persicae (green peach aphid). As for the experimental part: (§1) Solvent: 7 parts by weight of dimethylformamide
(§2) Emulsifier: 1 part by weight of alkylaryl polyglycol ether
(§3) To produce a suitable preparation of active compound, 1 part by weight of active compound is mixed with the stated amount of solvent and the stated amount of emulsifier, and the concentrate is diluted with water to the desired concentration.
Cabbage leaves (Brassica oleracea) which are severely infested with the green peach aphid (Myzus persicae) are treated by being dipped into the preparation of active compound of the desired concentration.
After the desired period of time, the destruction in % is determined. 100% means that all the aphids have been killed; 0% means that none of the aphids have been killed.

In data set [3] the test system is Nephotettix cincticeps. The experiment in a line: Nephotettix test. It counts as in vivo, Nephotettix cincticeps (green rice leafhopper). To be noted: 144 h, after 6d, read-out: Degree of destruction in % after 6d; for mortality at 1e-05 %: active compound concentration 0.00001 %; for mortality at 0.0001 %: active compound concentration 0.0001 %; for mortality at 0.001 %: active compound concentration 0.001 %. As for the experimental part: as §1, §2, §3
Rice seedlings (Oryza sativa) are treated by being dipped into the preparation of active compound of the desired concentration and are infested with larvae of the green rice leafhopper (Nephotettix cincticeps) while the seedlings are still moist.
After the desired period of time, the destruction in % is determined. 100% means that all the leafhoppers have been killed; 0% means that none of the leafhoppers have been killed.

A short description of data set [4]: physchem.
Data set [5] deals with Ctenocephalides felis. The experiment in a line: In-vitro flea test (all stages of development). Format: in vivo. Conditions: no adult fleas after 11/2 times the development time. Here is the method:
In-vitro flea test (all stages of development)
Test object: All stages (eggs, larvae, pupae and adults) of Ctenocephalides felis.
Test method: Bloodmeal is dried overnight in a shallow dish at approximately 70° C. and subsequently screened using a mesh size of 0.63 mm.
1.8 g portions of the bloodmeal which has been prepared in this manner are placed into plastic Petri dishes .o slashed. 9.8 cm.
Using an Eppendorf pipette, 0.2 ml of the substance are added to the 1.8 g portions of bloodmeal (dilution 1:10). This means that for a use concentration of 1 ppm, the aqueous solution must have a concentration of 10 ppm. The solution is applied dropwise and uniformly over the entire area covered by the bloodmeal.
The dishes which have been prepared in this manner are allowed to dry overnight. Using a suitable device, the substance, now in the form of dried lumps of bloodmeal, is broken up and distributed homogeneously in the Petri dish by swirling. To the test dishes which have been prepared in this manner there is now added a spatula--tipful of flea eggs which have been obtained by screening (and which are derived from experimentally infected cats). The dish is sealed using Parafilm and shaken vigorously.
The test materials are incubated at 25° C. and a relative humidity of 85%. At certain intervals, the dishes are examined for stages of development of the fleas.
Test criterion: The criterion for the in-vitro activity of a substance is defined as the inhibition of flea development, or a standstill during the development before reaching the adult stage.
Effective: No adult fleas found after 11/2 times the development time.
Ineffective: Adult fleas found after 11/2 times the development time.

In data set [6] the test system is Musca domestics, strain WHO(N). In words: Fly test. It counts as in vivo. To be noted: 6 h, read-out: activity (flies destroyed). As for the experimental part: Test animals: Musca domestics, strain WHO(N)
Solvent: 35 parts by weight of ethylene glycol mono-methyl ether
35 parts by weight of nonylphenol polyglycol ether
To produce a suitable formulation, three parts by weight of active compound are mixed with seven parts of the abovementioned solvent-emulsifier mixture and the emulsion concentrate thus obtained is diluted with water to the particular desired concentration.
2 ml of this preparation of active compound are pipetted onto paper filter discs (.o slashed. 9.5 cm) located in Petri dishes of a suitable size. After the discs have dried, 25 test animals are transferred into the Petri dishes and covered.
After 6 hours, the activity of the preparation of active compound is determined. The activity is expressed in %. 100% means that all flies have been destroyed; 0% means that no flies have been destroyed.

Data set [7] has as its system Plutella maculipennis. The experiment in a line: Plutella test. It counts as in vivo, Plutella maculipennis (diamond-back moth). Conditions: 72 h, read-out: Degree of destruction in % after 3d. As for the experimental part: as §1, §2, §3
Cabbage leaves (Brassica oleracea) are treated by being dipped into the preparation of active compound of the desired concentration and are infested with caterpillars of the diamond-back moth (Plutella maculipennis) while the leaves are still moist.
After the desired period of time, the destruction in % is determined. 100% means that all the caterpillars have been killed; 0% means that none of the caterpillars have been killed.

For data set [8], the system named is Aphis fabae. In words: Critical concentration test/root-systemic action. It counts as in vivo. To be noted: 48 h, 20 ppm in soil, infested after 7 days, evaluated after a further 2 days, read-out: Degree of destruction in % at active compound concentrations in ppm (root-systemic action). Here is the method:
Critical concentration test/root-systemic action
Solvent: 4 parts by weight of acetone
as §2
To produce a suitable preparation of active compound, 1 part by weight of active compound is mixed with the stated amount of solvent, the stated amount of emulsifier is added and the concentrate is diluted with water to the desired concentration.
The preparation of active compound is intimately mixed with soil. The concentration of the active compound in the preparation is of practically no importance, only the amount by weight of active compound per unit volume of soil, which is given in ppm (=mg/1), being decisive. The treated soil is transferred into pots and these are planted with pregerminated broad beans. The active compound can in this way be taken up from the soil by the roots of the plants and be transported into the leaves.
After a further 2 days, the evaluation is made by counting or estimating the dead animals. The root-systemic action of the active compound is deduced from the mortality figures. It is 100% if all test animals have been killed and 0% if just as many test insects are still alive as in the case of the untreated control.

Setting [9] is: active compound concentration 0.001 %, after 6d.
The mark [10] stands for this setting: active compound concentration 0.01 %, after 6d.

Like-named read-outs stand apart in the source and are kept apart here.

Broadly, the logP is a log measure of how a compound divides between an organic and an aqueous phase. Low readings indicate a more hydrophilic compound, high ones a more lipophilic compound. What is called inhibition is the relative decrease from the control value, in per cent. Read a low inhibition as little suppression.

For the compound `CC(C)NC(=O)OCCN1CC([N+](=O)[O-])=C2N(Cc3ccc(Cl)nc3)CCN2C1` [Example 14], the “activity compared with the prior art” value in data set [1] (24 hours) is listed as “superior activity compared with the prior art”. Moreover, the mortality at 100 ppm in data set [1] (24 h) stood at 100%.

For `CCOC(=O)NCCCN1CC([N+](=O)[O-])=C2N(Cc3ccc(Cl)nc3)CCN2C1` [drawing 141], in data set [2], the mortality at 0.001 % was determined as 99% and the mortality at 0.01 % worked out at 100%.

For `CNC(=O)OCCCN1CC([N+](=O)[O-])=C2N(Cc3ccc(Cl)nc3)CCN2C1` [drawing 135], in data set [3], the mortality at 1e-05 % stood at 100%, the mortality at 0.0001 % was 100% and the mortality at 0.001 % is 100%.

As to `O=[N+]([O-])C1=C2N(Cc3ccc(Cl)nc3)CCN2CN(CCCCCCO)C1` [II-14], in data set [4], the logP worked out at 0.74.

As to `CC(C)(C)OC(=O)NCCN1CC([N+](=O)[O-])=C2N(Cc3ccc(Cl)nc3)CCN2C1` [Example 16], in data set [1] (24 hours), the “activity compared with the prior art” value is recorded as “superior activity compared with the prior art”. Also, the mortality at 100 ppm in data set [1] (24 h) is 100%. In data set [5], this compound displayed an inhibition at 10 ppm of 100%. Further, the mortality at 1000 ppm in data set [6] is 100%.

`O=[N+]([O-])C1=C2N(Cc3ccc(Cl)nc3)CCN2CN(CCCCCO)C1` [II-13] came in with a log partition coefficient (logP) in data set [4] of 0.97.

Turning to `O=C(NCCN1CC([N+](=O)[O-])=C2N(Cc3ccc(Cl)nc3)CCN2C1)OCc1ccccc1` [Example 18], in data set [1] (24 hours), the “activity compared with the prior art” value is on record as “superior activity compared with the prior art”. Besides, the mortality at 100 ppm in data set [1] (100 ppm, 24 hours) was determined as 100%. Besides, in data set [5], the inhibition at 10 ppm amounted to 100%.

Consider `CCOC(=O)NCCN1CC([N+](=O)[O-])=C2N(Cc3ccc(Cl)nc3)CCN2C1` [Example 3, 6,7-dihydro-6-(2-ethoxy-carbonylamino-ethyl)-8-nitro-(5H)-3-(2-chloropyridin-5-yl-methyl)-imidazolidino-[2,3-f] -pyrimidine], for which, in data set [1] (24 hours), the “activity compared with the prior art” value is listed as “superior activity compared with the prior art”. Further, the mortality at 100 ppm in data set [1] (24 h) was 100%. Moreover, 10 ppm produced 100% inhibition in data set [5].

For `CCCCNC(=O)OCCCN1CC([N+](=O)[O-])=C2N(Cc3ccc(Cl)nc3)CCN2C1`, the mortality at 0.001 % in data set [2] (setting [9]) amounted to 98%. In data set [2] (setting [10]), the mortality at 0.01 % worked out at 100%.

As for `O=[N+]([O-])C1=C2N(Cc3ccc(Cl)nc3)CCCN2CN(CCOCC(F)(F)F)C1` [drawing 137, reference compound], in data set [2], the mortality at 0.001 % was 0% and the mortality at 0.01 % came to 80%.

With `CC(=O)OCCCN1CC([N+](=O)[O-])=C2N(Cc3ccc(Cl)nc3)CCN2C1` [drawing 136], in data set [3], the mortality at 1e-05 % was 100%, the mortality at 0.0001 % worked out at 100% and the mortality at 0.001 % was determined as 100%.

With `O=C(NCCN1CC([N+](=O)[O-])=C2N(Cc3ccc(Cl)nc3)CCN2C1)OCc1ccccc1` [drawing 127], in data set [7] (active compound concentration 0.01 %, after 3d), the mortality at 0.01 % was 100%. Further, the mortality at 0.1 % in data set [7] (active compound concentration 0.1 %, after 3d) worked out at 100%.

Turning to `CC(C)(C)OC(=O)NCCN1CC([N+](=O)[O-])=C2N(Cc3ccc(Cl)nc3)CCN2C1` [drawing 123], in data set [7], the mortality at 0.01 % was 100% and the mortality at 0.1 % turned out to be 100%.

As for `CC(C)(C)C(=O)NCCN1CC([N+](=O)[O-])=C2N(Cc3ccc(Cl)nc3)CCN2C1`, in data set [8], the mortality at 20 ppm was determined as 100%.

Turning to `CCOC(=O)NCCN1CC([N+](=O)[O-])=C2N(Cc3ccc(Cl)nc3)CCN2C1` [drawing 139], in data set [2], the mortality at 0.001 % is 95% and the mortality at 0.01 % worked out at 100%.

On to `CC(C)(C)OC(=O)NCCN1CC([N+](=O)[O-])=C2N(Cc3ccc(Cl)nc3)CCN2C1` [drawing 138], for which, in data set [2], the mortality at 0.001 % was determined as 100% and the mortality at 0.01 % is 100%.

For the compound `O=C(NCCCCCCCl)OCCCN1CC([N+](=O)[O-])=C2N(Cc3ccc(Cl)nc3)CCN2C1` [drawing 143], the mortality at 0.001 % in data set [2] (setting [9]) was 100%. Further, the mortality at 0.01 % in data set [2] (setting [10]) stood at 100%.

With `CNC(=O)OCCCN1CC([N+](=O)[O-])=C2N(Cc3ccc(Cl)nc3)CCN2C1` [drawing 128], in data set [7], the mortality at 0.01 % worked out at 100% and the mortality at 0.1 % was determined as 100%.

`O=[N+]([O-])C1=C2N(Cc3cnc(Cl)s3)CCN2CN(CCCCO)C1` [II-17]: the log partition coefficient (logP) in data set [4] was determined as 0.58.

Regarding `CC(=O)NCCN1CC([N+](=O)[O-])=C2N(Cc3ccc(Cl)nc3)CCN2C1` [drawing 140], in data set [2], the mortality at 0.001 % was found to be 100% and the mortality at 0.01 % came out at 100%.

Regarding `O=[N+]([O-])C1=C2N(Cc3ccc(Cl)nc3)CCCN2CN(CCOCC(F)(F)F)C1` [drawing 134, reference compound], in data set [3], the mortality at 1e-05 % turned out to be 0%, the mortality at 0.0001 % was 60% and the mortality at 0.001 % was determined as 100%.

For the origin of these results see patent US6054459A, “Substituted 1,2,3,4-tetrahydro-5-nitro-pyrimidines” (priority 1994, dated 2000).
